Measured values reported in PubChem BioAssay AID179 (DTP/NCI, 2004).
pEC50, pIC50: −log10 of the molar value. Where “and” joins values, the source holds several entries; their conditions need not be identical. Equal entries are not always repeated. Calls of active or inactive are those of the source.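 Rule for the calls: active = compounds giving half or more protection of infected cells from virus-caused growth loss, again on retest; inactive = the rest.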

Test system: CEM cells HIV-1 protection, formazan growth assay
Assay: NCI AIDS Antiviral Assay
Conditions: for pIC50: measured here: growth of uninfected CEM cells
Summary of the method: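 Steps: treat uninfected and HIV-1-infected human CEM cells at five drug levels; quantify growth by soluble formazan; retest any compound reaching 50% protection; classify actives from the retest.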

Compound | pEC50 | pIC50 | outcome
C#CCCCCC#CC1CCCC1C1=CC(=O)c2ccccc21 (configuration not stated) | < 4.00 | 5.22 | –
c1cc2nnsc2s1 | < 3.60 | < 3.60 | –
COc1ccc(C(c2ccc3cccnc3c2O)c2ccc3cccnc3c2O)cc1 | – | – | inactive
O=S(=O)(O)c1ccc(OCCCCCCCCOc2ccc(S(=O)(=O)O)cc2)cc1 | < 4.84 | < 4.84 | –
CC1C2CC(CC23OCC(CCl)O3)C1(C)C (configuration not stated) | < 3.70 | < 3.70 | –
O=C(O)c1ccc([N+](=O)[O-])c2cc3cnccc3nc12 | < 3.70 | 5.54 | –
CC1=C(/C=C/C(C)=C/C=C/C(C)=C/C=C/C=C(C)/C=C/C=C(C)/C=C/C2=C(C)C(=O)C(O)CC2(C)C)C(C)(C)CC(O)C1=O (configuration not stated) | < 4.36 | < 4.36 | –
O=C(OCc1ccccc1)N1N=NC2C1C1CC(OCc3ccccc3)(OCc3ccccc3)C2O1 (configuration not stated) | < 4.83 | < 4.83 | –
CCCC(Sc1ccccc1)P(=O)(c1ccccc1)c1ccccc1 (configuration not stated) | – | – | inactive
N#CC(c1ccccc1)N(CCc1ccccc1)C(=O)Oc1ccccc1 (configuration not stated) | < 3.70 | < 3.70 | –
C#CCN(N=O)C(=O)NC(CCCCNC(=O)OCc1ccccc1)C(=O)OCc1ccccc1 (configuration not stated) | < 4.97 | < 4.97 | –
c1ccc2c(c1)Cc1ccccc1-c1c-2[nH]c2ccccc12 | < 3.70 | 4.98 | –
OCCCN(Cc1ccccc1)CC(O)c1ccc(OCc2ccccc2)c(OCc2ccccc2)c1 (configuration not stated) | < 3.70 | 5.02 | –
CCOC(=O)c1oc2cc(O)ccc2c(=O)c1-c1ccc(OC)c(OC)c1 | < 3.70 | 4.29 | –
Cc1cc(=O)[nH]c(NNC(C#N)c2cccc([N+](=O)[O-])c2)n1 (configuration not stated) | < 4.34 | < 4.34 | –
CC(C)(C)OC(=O)N[C@H]1CC(O)c2ccccc2N(CC(=O)O)C1=O (some centres not stated) | < 3.60 | < 3.60 | –
O=C(O)CCC(NC(=O)c1ccc(CNc2nc3cc(C(F)(F)F)ccc3nc2C(=O)O)cc1)C(=O)O (configuration not stated) | < 3.70 | < 3.70 | –
CC(C)CCCC(C)[C@H]1CCC2C3CC=C4C[C@@H](OP(=O)(O)OCCC=C(c5cc(Cl)c(O)c(C(=O)O)c5)c5cc(Cl)c(O)c(C(=O)O)c5)CC[C@]4(C)C3CC[C@@]21C (some centres not stated) | < 4.00 | 4.41 | –
COc1ccc(C(C#N)NNC(=O)Cc2ccccc2)cc1OC (configuration not stated) | < 3.40 | 3.48 | –
CN1C2=CC=CC=CC2=[N+](C)C1C(=C=[N-])C#N (configuration not stated) | < 3.44 | 3.61 | –
CC1=CC2OC3CC(OC(=O)/C=C/C=C/C(OCCC4=CC(=O)OC4)C(C)O)C(C)(C2(CO)CC1)C31CO1 (configuration not stated) | < 4.17 | 5.82 | –
COc1cccc(N2C(=O)c3c(c4[nH]c5ccccc5c4c4ccc(C(C)(C)C)cc34)C2=O)c1 | < 4.94 | < 4.94 | –

Compound | pEC50 | pIC50 | outcome
CC(CCCOC(c1ccccc1)(c1ccccc1)c1ccccc1)OC(=O)Nc1cc([N+](=O)[O-])cc([N+](=O)[O-])c1 (configuration not stated) | < 4.89 | < 4.89 | –
Clc1ccc(CNc2nc(Cl)c3[nH]cnc3n2)cc1Cl | < 3.70 | 4.64 | –
C=CC(=O)NCCSSCCNC(=O)C=C | < 3.70 | 3.94 | –
Cc1ccc2nn(-c3ccc(O)cc3)nc2c1 | – | – | inactive
CC(=C/c1ccccc1)/C=C1/NC(=S)NC1=O | < 3.70 | < 3.70 | –
C=CCNC(=S)OCCCCCCCCCC | – | – | inactive
CC(C)(N=NC(C)(C)C1=NCCN1)C1=NCCN1 | < 3.70 | 3.98 and 4.08 | –
O=C(O)CN(CC(=O)O)CC(O)CN(CC(=O)O)CC(=O)O | < 3.70 | 4.16 | –
COCOC1C(=O)N(c2ccccc2)[C@@H]1c1ccccc1 (some centres not stated) | < 4.04 | < 4.04 | –
COc1ccc(CCNC(=O)/C(=C\c2ccc3c(c2)OCO3)NC(=O)c2ccccc2)cc1OC | < 3.70 | < 3.70 | –
CSc1nc2c(=O)n(-c3ccccc3)c(=S)n(-c3ccccc3)c2s1 | < 3.70 | 3.93 | –
CC(=O)c1ccc2c(c1)N(CCCN1CCN(CCO)CC1)c1ccccc1S2 | < 3.70 | 4.99 | –
COc1cccc(C2c3cc4c(cc3OC(NNS(=O)(=O)c3ccc(C)cc3)C2C)OCO4)c1OC (configuration not stated) | < 3.70 | 5.73 | –
COc1ccc(N2C(=O)C(=O)N(C)C2=O)c2ccccc12 | – | – | inactive
O=C1C(Cl)N(c2cccc(Cl)c2)C1c1c[nH]c2ccccc12 (configuration not stated) | < 3.55 | 3.99 | –
C[N+]1(C)CC2C3C=CC(C3)C2C1 (configuration not stated) | < 3.51 | < 3.51 | –
Cc1ccc2c(CC(=O)O)cc(=O)oc2c1 | < 3.64 | 4.41 | –
Cc1c(/C=C2\CC/C(=C\c3[nH]c(C(=O)OC(C)(C)C)c(C)c3C)C2=O)[nH]c(C(=O)OC(C)(C)C)c1C | – | – | inactive
CC(c1cccc2ccccc12)/[N+]([O-])=C/c1ccccc1 (configuration not stated) | < 3.74 | 3.79 | –
C[C@]12CC[C@@H]3c4cc(OCC(F)(F)F)c(O)cc4/C(=N/O)C[C@H]3[C@@H]1CC[C@@H]2O | < 6.70 | 7.03 | –
O=C(c1ccc(Cl)cc1)N1CC1 | < 3.70 | 4.09 | –
CN1N=C(c2ccncc2)OC1c1ccc(Cl)cc1Cl (configuration not stated) | < 3.70 | 4.07 | –

Compound | pEC50 | pIC50 | outcome
Cn1cnc([N+](=O)[O-])c1Sc1ccccc1C(=O)O | < 3.47 | < 3.47 | –
Cn1c(N)c(N=Nc2ccc(S(=O)(=O)Nc3ccccn3)cc2)c(=O)n(C)c1=O | – | – | inactive
C=CCCCN1CCCC(C)C1=S (configuration not stated) | < 3.60 | < 3.60 | –
CCN1C(=O)/C(=C\c2coc3ccccc3c2=O)SC1=S | < 6.09 | < 6.09 | –
COC(=O)c1cc(C(=O)OC)c(CC(=O)C(=O)Nc2ccc(Cl)c(C(F)(F)F)c2)nc1CC(=O)C(=O)Nc1ccc(Cl)c(C(F)(F)F)c1 | < 3.70 | 3.83 | –
Nc1ncnc2c1ncn2C1OC(COC2C(O)C(OC3OC(CO)C(O)C(O)C3N)C(O)C(OS(=O)(=O)O)C2OC(=O)[C@@H](N)CO)C(O)C1O (some centres not stated) | < 3.70 | < 3.70 | –
CCn1cc2c(=O)n3ncn(-c4ccc(Br)cc4)c3nc2n1 | – | – | inactive
CC#CCCC1(CC)CCCN(C(=O)OC(C)C)C1OCC (configuration not stated) | < 4.49 | < 4.49 | –
O=c1[nH]c(Nc2ccc(Cl)c(C(F)(F)F)c2)nc2nc[nH]c12 | < 3.70 | 4.05 | –
CC#N.CC#N.COC(=O)[C@@H]1COC(=O)[N-]1.COC(=O)[C@@H]1COC(=O)[N-]1.COC(=O)[C@@H]1COC(=O)[N-]1.COC(=O)[C@@H]1COC(=O)[N-]1.[Rh+2].[Rh+2] | < 3.70 | < 3.70 | –
Cc1cc(Nc2ccc(S(=O)(=O)O)cc2)c2ccccc2n1 | < 3.70 | < 3.70 | –
COc1cc(C(Cc2ccccc2)NC(C)=O)oc(=O)c1 (configuration not stated) | < 3.06 | 3.81 | –
COC(C(=O)[O][Ge]([CH3])([CH3])[CH3])c1ccccc1 (configuration not stated) | < 3.60 | < 3.60 | –
C/C(=N\Oc1cc(Cl)ncn1)c1ccccn1 | < 3.70 | 4.52 | –
COc1cc(C2C(Cl)C(=O)N2n2cnc3ccccc3c2=O)cc(OC)c1OC (configuration not stated) | < 5.18 | < 5.18 | –
CC(=O)Nc1nnc(S(C)(=O)=O)s1 | < 2.95 | 3.07 | –
CCOC(=O)c1c(-c2ccccc2)oc(=O)c(Cc2cccc3cccnc23)c1-c1ccccc1 | < 3.70 | < 3.70 | –
COc1cc2c(cc1OC)CCc1cc(OC)c(OC)cc1CC2 | < 3.70 | 4.05 | –
COc1cc(OC)c(OC)cc1/C=N/N=C(\N)NO | < 3.70 | < 3.70 | –
C[n+]1cn(-c2nc3ccccc3nc2[N-]S(=O)(=O)c2ccccc2)c2ccccc21 | < 3.70 | < 3.70 | –
CN(C)Cc1ccccc1CCO | < 3.70 | < 3.70 | –
N#Cc1cccc(N2C(=O)c3c(c(-c4ccccc4)c(-c4ccc(Sc5ccc(-c6c(-c7ccccc7)c7c(c(-c8ccccc8)c6-c6ccccc6)C(=O)N(c6cccc(C#N)c6)C7=O)cc5)cc4)c(-c4ccccc4)c3-c3ccccc3)C2=O)c1 | < 4.92 | < 4.92 | –

Compound | pEC50 | pIC50 | outcome
O=C(c1ccc(Cl)cc1Cl)N(C(=O)N1CCCCC1)c1ccccc1 | < 3.70 | < 3.70 | –
CCSc1nnc(Sc2c3ccccc3nc3ccccc23)s1 | < 3.70 | 5.55 | –
COc1ccc2c(c1)C(=O)Cc1ccccc1CC2 | < 4.40 | < 4.40 | –
O=C(CCCN1CCC2(CC1)NC(=O)c1ccccc1O2)c1ccc(F)cc1 | < 3.70 | < 3.70 | –
O=C(O)[C@H]1CCCN1C(=O)c1ccccc1SSc1ccccc1C(=O)N1CCC[C@H]1C(=O)O | < 3.70 | < 3.70 | –
Nc1nc(CC2(O)CCCCC2)cc(-c2ccccc2)n1 | < 5.71 | < 5.71 | –
CCN(C(=O)N[C@H](C(=O)N[C@@H](C)C(=O)OC)C(C)C)c1ccccc1 | < 3.70 | 4.45 | –
CCCCCCC=C(c1cc(Cl)c(OC)c(C(=O)OC)c1)c1cc(Cl)c(OC)c(C(=O)OC)c1 | < 5.27 | < 5.27 | –
Cc1c2n(c3ccccc13)CC1C2N(C)OC1(C)C (configuration not stated) | < 3.58 | < 3.58 | –
CC[N+]1(C)CSC(=S)N(C)C1 (configuration not stated) | < 3.70 | 4.12 | –
CC(=O)NC1=N/C(=C\c2ccc(Cl)cc2)C(=O)N1/C=C1\C(=O)Oc2ccccc2C1=O | < 3.70 | 4.06 | –
O=c1c2ccccc2nc(-c2ccccc2)n1-c1nccs1 | < 3.70 | 4.65 | –
Cc1ccc(NC2=NCCO2)c2c1CCC2 | < 3.70 | 4.47 | –
Cc1cc(CC(=O)NCCO)n(CCO)c(=O)c1 | < 3.01 | < 3.01 | –
Cc1cc2ccc3c(c2oc1=O)[C@@H](OC(=O)C12CCC(C)(C(=O)O1)C2(C)C)[C@@H](OC(=O)C12CCC(C)(C(=O)O1)C2(C)C)C(C)(C)O3 (some centres not stated) | 6.68 | 4.73 | –
Fc1c(F)c(F)c(CSc2nc3ccccc3[nH]2)c(F)c1F | < 3.70 | 3.84 | –
O=c1cc(O)c2ccccc2[nH]1 | < 3.70 | < 3.70 | –
CC1=NN(C2=NS(=O)(=O)c3ccccc3N2C)C(=O)C1 | < 3.91 | < 3.91 | –
CC(=O)OC12c3ccccc3C(c3ccccc31)C1C(=O)N(Nc3ccccc3)C(=O)C12 (configuration not stated) | < 3.70 | < 3.70 | –
